Design in all cases: species or system BALB/c mice
What all share (conditions): mouse, in vivo

For assay [1], the system named is HA (peptide pools derived from HA).
Assay [2] has as its system homologous influenza virus isolate used for immunization (MDCK cells, CPE).
The test system of assay [3] is Total anti-HBS antibodies.
Assay [4] concerns Total anti-influenza IgG antibodies.

As to “CYYWC (Short peptide sequence not known to occur in nature)”, the “T-cell response (ELISPOT), FIG. 18” value in assay [1] is “below the baseline of HA alone”.

“WHKCE (Short peptide sequence not known to occur in nature) [5mer2]”: the “Neutralizing antibody response, FIG. 2” value in assay [2] was “did not cause a strong neutralizing antibody response”.

As to “EHWCM (Short peptide sequence not known to occur in nature)”, the “T-cell response (ELISPOT), FIG. 18” value in assay [1] is given as “generated a large T-cell response”.

As for “CKWRC (Short peptide sequence not known to occur in nature) [5mer3]”, the “Neutralizing antibody response, FIG. 2” value in assay [2] is reported as “did not cause a strong neutralizing antibody response”.

With “KYMCW (Short peptide sequence not known to occur in nature) [5mer7]”, the “Neutralizing antibody response, FIG. 2” value in assay [2] is reported as “caused a significant antibody response”.

On to “CHKWD (Short peptide sequence not known to occur in nature) [5mer1]”, for which, in assay [2], the “Neutralizing antibody response, FIG. 2” value is given as “did not cause a strong neutralizing antibody response”.

With “KWCEC (Short peptide sequence not known to occur in nature) [5mer4]”, in assay [2], the “Neutralizing antibody response, FIG. 2” value is given as “caused a significant antibody response”. Further, the “T cell response (ELISPOT) compared with other adjuvants, FIG. 16” value in assay [1] is “stronger than that generated with alum alone and comparable to that generated by CpG”.

In the case of “CYWWW (Short peptide sequence not known to occur in nature)”, in assay [1], the “T-cell response (ELISPOT), FIG. 18” value is reported as “generated a significant T-cell response”.

As to “EMWCM (Short peptide sequence not known to occur in nature)”, the “T-cell response (ELISPOT), FIG. 18” value in assay [1] is given as “did not”.

With “free peptide (KWCEC; Short peptide sequence not known to occur in nature)”, in assay [3], the “Total anti-HBS antibodies (ELISA) response” value is “strong response at both 6 and 8 weeks post immunization”. Besides, the “antibody response (ELISA) after fluviral vaccination” value in assay [4] is “stronger response at both 6 and 8 weeks post immunization”.

These data come from US9211325B2, “Peptide adjuvants” (priority 2008, dated 2015).
